Experimental data from patent US20070042339A1, “Preservation of biomaterials with transported preservation agents” (priority 2003, published 2007).
Where two headings read alike, the source gives them in different places.

What was measured:
hepatocytes [1] = assay type: cell-based; conditions: rat, 60 min, 200 mM
Description: HTS without sugar supplement was used for control samples. […] Following storage, samples were rapidly thawed in 37° C. H2O for 2 min with gentle agitation.

[2] = system: lymphocytes, fibroblasts and hepatocytes; experiment: MTT assay of metabolic activity after glucose loading (Example 1); assay type: cell-based, murine; rat; conditions: 1 hr at 37° C.
Description: However, it was considered to be possible that high accumulation of glucose compounds change metabolic activity of the cells. Therefore, metabolic activity after sugar loading was measured with the MTT assay. MTT assay is a colorimetric assay based on the activity of mitochondrial dehydrogenase activity. […] Cells were seeded on 96-well culture plates with 100 μL defined medium supplemented with various glucose compounds according to the experimental design for 1 hr at 37° C. At the end of the treatment period, 10 μL of MT solution (5 mg/mL) were added and incubated for 2 hrs at 37° C. At this time, 100 μL of detergent solution were added to the wells and after 24 hrs of incubation at 25° C., and the absorption value at 570 nm was measured in a microtiter reader.

[3] = system: murine B lymphocytes, murine fibroblasts, and rat primary hepatocytes; experiment: Cryopreservation with non-metabolizable glucose compounds, post-thaw trypan blue viability (Example 1); assay type: cell-based; conditions: 0.2 M loading 60 min
Description: At first, these compounds were tested on cryopreservation, which is most common protocol for preservation of biomaterials. Glucose compounds are thought to prevent damaging effects of protein and lipid-membranes during storage. In addition, glucose compounds have a high glass transition temperature and cause the formation of stable glasses during storage. Cells were incubated with glucose-free DMEM or glucose-free DMEM with 0.2 M 2DG, or 0.2 M 3OMG for 60 min at 37° C. […] Samples were stored for up to 14 days. Following storage, samples were rapidly thawed in 37° C. H2O for 80 sec with gentle agitation. […] Samples were then centrifuged, supernatant decanted, and cells were resuspended in culture medium.

hepatocytes [4] = assay type: cell-based, rat
Description: The sandwich culture is a long-term culture technique that results in stable and differentiated hepatocytes. We evaluated albumin synthesis, urea production, and cytochrome P450 (CYP) activity of frozen-thawed hepatocytes as markers of synthetic, metabolic, and detoxification abilities of hepatocytes. Albumin production of 3OMG-loaded and cryopreserved hepatocytes stabilized following 7 days in culture (FIG. 11A). Daily average of albumin production (day 7-13) from 3OMG-loaded hepatocytes was approximately 60% of non-frozen control (1.29±0.19 μg and 2.14±0.26 μg, respectively) with statistically significant difference (p=0.014). […] The CYP activity was measured on day 3 and 7 after thawing.

[5] = system: lymphocytes, fibroblasts and hepatocytes; assay type: cell-based, murine; rat
Description: The conventional permeable cryoprotectants such as DMSO and glycerol benefit cells for preservation, but they are known to be toxic to the cells at the same time. […] The toxicity of various glucose compounds, D-glucose and DMSO was examined after loading. Cells were incubated with glucose-free DMEM supplemented with 0.2 M 3OMG, with 0.2 M 2DG or 1.4 M DMSO for 60 min at 37° C. After loading, calcein and ethidium homodimer were added to cell suspensions to assess viability. Cells were run through Beckton-Dickinson FACSCalibur flowcytometer to take emission reading at 530 nm and 630 nm of 5000 particles. High green and low red fluorescence (calcein positive) were scored as live, whereas high red and low green (ethidium positive) were scored dead.

How did the “post-thaw viability, percent of non-frozen samples” value (hepatocytes [1]) turn out when `OC[C@H]1OC(O)C[C@@H](O)[C@@H]1O` (mixture of isomers) [2DG, 2-deoxy-D-glucose] was run?
The value was 15%.

And the “metabolic activity (MTT) after loading, lymphocytes and fibroblasts” value ([2]; lymphocytes and fibroblasts)?
The value was “significant loss of metabolic activity”.

And the “metabolic activity (MTT) after loading, hepatocytes” value ([2]; primary isolated hepatocytes)?
The value was “not down-regulated”.

What about the “viability after cryopreservation compared to non-glucose control” value [3] of the same compound?
Its value is “significantly high viability”.

What does the source list for `O=C[C@H](O)[C@@H](O)[C@H](O)[C@H](O)CO` [D-glucose]?
hepatospecific functions (albumin, urea, CYP) in long-term culture after cryopreservation (hepatocytes [4]): completely lost these functions in 5 days; post-thaw viability, percent of non-frozen samples (hepatocytes [1]): < 10%

With `C[S+](C)[O-]` [DMSO, dimethylsulfoxide] as the compound, how does the “toxicity to the cells (percentage of dead cells after incubation)” value [5] read?
The value was “significant toxicity”.

How did the “hepatospecific functions (albumin, urea, CYP) in long-term culture after cryopreservation” value (hepatocytes [4]; collagen sandwich culture, 14 days) turn out when `OC[C@H]1O[C@@](CO)(O[C@H]2O[C@H](CO)[C@@H](O)[C@H](O)[C@H]2O)[C@@H](O)[C@@H]1O` [sucrose] was run?
The value was “completely lost these functions in 5 days”.
